Results reported in patent US11000033B2, “Ketone or oxime compound, and herbicide” (NISSAN CHEMICAL CORPORATION, priority 2014, dated 2021).

Columns and labels:
Format in all cases: in vivo
[1] = tested on: Echinochloa oryzacola Vasing.; assay: Test Example 2: herbicidal activity, application during weed generation in submerged conditions (symbol A); settings: Table 23; application herbicide amount 320 g/ha; grade 0-5 by criteria of Test Example 1
Method in brief: (§1)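 Compound was applied as a water-diluted emulsion into the standing water of flooded pots (4 cm) once co-sown weeds reached one to two leaves. Greenhouse temperature was 25° C. to 30° C., soil was alluvial, and each species was rated visually after 3 weeks.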

[2] = tested on: Stellaria media; assay: Test Example 5: herbicidal effect by foliage application, plastic box (symbol P); settings: 320 g/ha, 3 weeks after application
Method in brief: (§2)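 Visual herbicidal score, taken three weeks post-application, of seedlings sprayed on the foliage with water-diluted emulsion at a predetermined amount; plants were 14 days old, greenhouse-raised at 25° C. to 30° C.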

[3] = tested on: Stellaria media; assay: Test Example 4: herbicidal effect by soil treatment (symbol P)
Method in brief: (§3)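 Seeds were sown in sterilized diluvial soil, covered with about 1.5 cm of soil, and the soil surface was sprayed with a water-diluted emulsion of the compound at a predetermined rate. Plants grew in a greenhouse at 25° C. to 30° C.; effects were scored visually 3 weeks after application.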

[4] = tested on: Digitaria ciliaris; assay: Test Example 5: herbicidal effect by foliage application, plastic box (symbol F); settings: 320 g/ha, 3 weeks after application
Method in brief: as §2

[5] = tested on: rice plant; assay: Test Example 5: effect on crop by foliage application, plastic box (symbol b); settings: 320 g/ha, 3 weeks after application
Method in brief: (§4)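 Foliage-application test plants come from spot sowing in sterilized diluvial soil under a soil layer of about 1.5 cm, grown at 25° C. to 30° C. in a greenhouse.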

[6] = tested on: directly sowed rice plant; assay: Test Example 3: effect on crop by foliage application, Wagner pot (symbol b); settings: application herbicide amount 320 g/ha
Method in brief: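 Wagner pot (1/10000 are), alluvial soil, submerged 0.1–0.5 cm; sown E. crus-galli var. crus-galli, L. chinensis, C. difformis, rice; greenhouse 25–30 °C.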

[7] = tested on: Monochoria vaginalis; assay: Test Example 2: herbicidal activity, application during weed generation in submerged conditions (symbol C); settings: Table 23; application herbicide amount 320 g/ha; grade 0-5 by criteria of Test Example 1
Method in brief: as §1

[8] = tested on: Echinochloa crus-galli var. crus-galli; assay: Test Example 4: herbicidal effect by soil treatment (symbol H)
Method in brief: as §3

[9] = tested on: rapeseed; assay: Test Example 5: effect on crop by foliage application, plastic box (symbol g); settings: 320 g/ha, 3 weeks after application
Method in brief: as §4

[10] = tested on: Abutilon theophrasti; assay: Test Example 4: herbicidal effect by soil treatment (symbol M)
Method in brief: as §3

[11] = tested on: Apera spica-venti; assay: Test Example 5: herbicidal effect by foliage application, plastic box (symbol L); settings: 320 g/ha, 3 weeks after application
Method in brief: as §2

[12] = tested on: Echinochloa oryzacola Vasing.; assay: Test Example 1: herbicidal activity, application before weed generation in submerged conditions (symbol A); settings: application herbicide amount 320 g/ha
Method in brief: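 Ratings (5: ≥90%, near complete withering; 4: 70–<90%; 3: 40–<70%; 2: 20–<40%; 1: 5–<20%; 0: ≤5%) were assigned 3 weeks after the diluted emulsion was applied to the water surface of freshly sown, submerged pots.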

[13] = tested on: Cyperus difformis; assay: Test Example 3: herbicidal effect by foliage application, Wagner pot (symbol E); settings: application herbicide amount 320 g/ha
Method in brief: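 In a shallow-flooded alluvial soil system held at 25–30 °C, plants including rice grew for 14 days and were then sprayed over the foliage with emulsion diluted to a fixed herbicide amount. Visual rating followed at 3 weeks.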

[14] = tested on: Avena fatua; assay: Test Example 5: herbicidal effect by foliage application, plastic box (symbol I); settings: 320 g/ha, 3 weeks after application
Method in brief: as §2

[15] = application herbicide amount 320 g/ha

Structure (SMILES) | Herbicidal effect grade, A: Echinochloa oryzacola Vasing. [1] | P: Stellaria media, herbicidal effect grade [2] | P: Stellaria media, herbicidal effect grade [3, 15] | F: Digitaria ciliaris, herbicidal effect grade [4] | b: directly sowed rice plant, effect on crop grade [5] | effect on crop b (directly sowed rice plant), grade 0-5 [6] | Herbicidal effect grade, C: Monochoria vaginalis [7] | H: Echinochloa crus-galli var. crus-galli, herbicidal effect grade [8, 15] | g: rapeseed, effect on crop grade [9] | M: Abutilon theophrasti, herbicidal effect grade [10, 15] | L: Apera spica-venti, herbicidal effect grade [11] | Herbicidal effect grade, A: Echinochloa oryzacola Vasing. [12] | herbicidal effect on E, grade 0-5 [13] | I: Avena fatua, herbicidal effect grade [14] | other results
CCOC(=O)C(C(=O)c1ccccn1)C1CC(O)=C(c2c(C)cc(C)cc2C)C1=O (stereo not drawn) [2-013] | 0 (Herbicidal ratio of 5% or lower (almost no effect)) | 1 (Herbicidal ratio of 5% or higher and lower than 20%) | 0 (Herbicidal ratio of 5% or lower (almost no effect)) | 4 (Herbicidal ratio of 70% or higher and lower than 90%) | 5 (Herbicidal ratio of 90% or more (almost completely withered)) | 0 (Herbicidal ratio of 5% or lower (almost no effect)) | 0 (Herbicidal ratio of 5% or lower (almost no effect)) | 1 (Herbicidal ratio of 5% or higher and lower than 20%) | 4 (Herbicidal ratio of 70% or higher and lower than 90%) | 0 (Herbicidal ratio of 5% or lower (almost no effect)) | 4 (Herbicidal ratio of 70% or higher and lower than 90%) | 0 (Herbicidal ratio of 5% or lower (almost no effect)) | 0 (Herbicidal ratio of 5% or lower (almost no effect)) | 3 (Herbicidal ratio of 40% or higher and lower than 70%) | 
CON=C(C)CC1CC(OC(=O)c2ccc(C(F)(F)F)cc2)=C(c2c(C)cc(C)cc2C)C1=O (stereo not drawn) [1-149] | 5 (Herbicidal ratio of 90% or more (almost completely withered)) |  |  |  |  | 5 (Herbicidal ratio of 90% or more (almost completely withered)) | 3 (Herbicidal ratio of 40% or higher and lower than 70%) |  |  |  |  | 5 (Herbicidal ratio of 90% or more (almost completely withered)) | 5 (Herbicidal ratio of 90% or more (almost completely withered)) |  | P: Stellaria media, herbicidal effect (criteria 0-5) [2]: 3 (Herbicidal ratio of 40% or higher and lower than 70%); P: Stellaria media, herbicidal effect grade ([3]; 320 g/ha): 0 (Herbicidal ratio of 5% or lower (almost no effect)); F: Digitaria ciliaris, herbicidal effect (criteria 0-5) [4]: 5 (Herbicidal ratio of 90% or more (almost completely withered)); b: directly sowed rice plant, effect on crop (criteria 0-5) [5]: 5 (Herbicidal ratio of 90% or more (almost completely withered)); H: Echinochloa crus-galli var. crus-galli, herbicidal effect grade ([8]; 320 g/ha): 5 (Herbicidal ratio of 90% or more (almost completely withered)); g: rapeseed, effect on crop (criteria 0-5) [9]: 4 (Herbicidal ratio of 70% or higher and lower than 90%); M: Abutilon theophrasti, herbicidal effect grade ([10]; 320 g/ha): 5 (Herbicidal ratio of 90% or more (almost completely withered)); L: Apera spica-venti, herbicidal effect (criteria 0-5) [11]: 5 (Herbicidal ratio of 90% or more (almost completely withered)); I: Avena fatua, herbicidal effect (criteria 0-5) [14]: 5 (Herbicidal ratio of 90% or more (almost completely withered))
CCOC(=O)C(C(=O)Cc1ccccc1)C1CC(O)=C(c2c(C)cc(C)cc2C)C1=O (stereo not drawn) [2-011] | 0 (Herbicidal ratio of 5% or lower (almost no effect)) | 0 (Herbicidal ratio of 5% or lower (almost no effect)) | 0 (Herbicidal ratio of 5% or lower (almost no effect)) | 0 (Herbicidal ratio of 5% or lower (almost no effect)) | 3 (Herbicidal ratio of 40% or higher and lower than 70%) | 0 (Herbicidal ratio of 5% or lower (almost no effect)) | 0 (Herbicidal ratio of 5% or lower (almost no effect)) | 0 (Herbicidal ratio of 5% or lower (almost no effect)) | 0 (Herbicidal ratio of 5% or lower (almost no effect)) | 0 (Herbicidal ratio of 5% or lower (almost no effect)) | 0 (Herbicidal ratio of 5% or lower (almost no effect)) | 0 (Herbicidal ratio of 5% or lower (almost no effect)) | 0 (Herbicidal ratio of 5% or lower (almost no effect)) | 0 (Herbicidal ratio of 5% or lower (almost no effect)) | 
